Measurements reported in US10335462B2, “Use of long-acting GLP-1 peptides” (Novo Nordisk A/S, priority 2012, dated 2019).
Where two headings read alike, the source gives them in different places.

Columns and labels:
[1] = tested on: human subjects with type 2 diabetes; conditions: in vivo
Source text: (§1) The placebo composition may be identical to the composition of the GLP-1 agonists, but not containing a GLP-1 agonist.
(§2) In a 12-week, randomised, double-blind, placebo-controlled trial, 411 human subjects (n=43-50 per group) with type 2 diabetes were exposed.

[2] = tested on: human subjects with type 2 diabetes; assay: 12-week randomised, double-blind, placebo-controlled trial: safety and tolerability
Source text: as §1, §2

| major hypoglycaemia [1] | reports of pancreatitis [1] | treatment-related changes in blood calcitonin [1] | Structure (SMILES) | withdrawals due to gastrointestinal adverse events [1] | proportion of subjects with nausea and vomiting ([2]; 12 weeks) | reports of pancreatitis ([2]; 12 weeks) | safety concerns ([2]; 12 weeks) | treatment-related changes in blood calcitonin ([2]; 12 weeks) | major hypoglycaemia ([2]; all dose groups) | withdrawals due to gastrointestinal adverse events ([2]; range over the dose groups) | subjects developing low titre non-neutralising anti-semaglutide antibodies (no cross-reaction to native GLP-1) ([2]; semaglutide 1.6 mg T) |
| --- | --- | --- | --- | --- | --- | --- | --- | --- | --- | --- | --- |
| no major hypoglycaemia | no reports | no reports | CCCCCCCCCCCCCCCC(=O)N[C@@H](CCC(=O)NCCCC[C@H](NC(=O)[C@H](C)NC(=O)[C@H](C)NC(=O)[C@H](CCC(N)=O)NC(=O)CNC(=O)[C@H](CCC(=O)O)NC(=O)[C@H](CC(C)C)NC(=O)[C@H](Cc1ccc(O)cc1)NC(=O)[C@H](CO)NC(=O)[C@H](CO)NC(=O)[C@@H](NC(=O)[C@H](CC(=O)O)NC(=O)[C@H](CO)NC(=O)[C@@H](NC(=O)[C@H](Cc1ccccc1)NC(=O)[C@@H](NC(=O)CNC(=O)[C@H](CCC(=O)O)NC(=O)[C@H](C)NC(=O)[C@@H](N)Cc1cnc[nH]1)[C@@H](C)O)[C@@H](C)O)C(C)C)C(=O)N[C@@H](CCC(=O)O)C(=O)N[C@@H](Cc1ccccc1)C(=O)N[C@H](C(=O)N[C@@H](C)C(=O)N[C@@H](Cc1c[nH]c2ccccc12)C(=O)N[C@@H](CC(C)C)C(=O)N[C@H](C(=O)N[C@@H](CCCNC(=N)N)C(=O)NCC(=O)N[C@@H](CCCNC(=N)N)C(=O)NCC(=O)O)C(C)C)[C@@H](C)CC)C(=O)O [liraglutide] | 2.2%-10 |  |  |  |  |  |  |  |
|  |  |  | CC[C@H](C)[C@H](NC(=O)[C@H](Cc1ccccc1)NC(=O)[C@H](CCC(=O)O)NC(=O)[C@H](CCCCNC(=O)COCCOCCNC(=O)COCCOCCNC(=O)CC[C@H](NC(=O)CCCCCCCCCCCCCCCCC(=O)O)C(=O)O)NC(=O)[C@H](C)NC(=O)[C@H](C)NC(=O)[C@H](CCC(N)=O)NC(=O)CNC(=O)[C@H](CCC(=O)O)NC(=O)[C@H](CC(C)C)NC(=O)[C@H](Cc1ccc(O)cc1)NC(=O)[C@H](CO)NC(=O)[C@H](CO)NC(=O)[C@@H](NC(=O)[C@H](CC(=O)O)NC(=O)[C@H](CO)NC(=O)[C@@H](NC(=O)[C@H](Cc1ccccc1)NC(=O)[C@@H](NC(=O)CNC(=O)[C@H](CCC(=O)O)NC(=O)C(C)(C)NC(=O)[C@@H](N)Cc1cnc[nH]1)[C@@H](C)O)[C@@H](C)O)C(C)C)C(=O)N[C@@H](C)C(=O)N[C@@H](Cc1c[nH]c2ccccc12)C(=O)N[C@@H](CC(C)C)C(=O)N[C@H](C(=O)N[C@@H](CCCNC(=N)N)C(=O)NCC(=O)N[C@@H](CCCNC(=N)N)C(=O)NCC(=O)O)C(C)C [semaglutide] |  | increased with dose, but were generally mild or moderate and ameliorated by titration | no reports | No semaglutide safety concerns were identified | no reports | no major hypoglycaemia | 4.7%-27.7 | One subject |
